Experimental data: PubChem BioAssay (NCI)
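Interpolation was linear, between the two tested concentrations surrounding the appropriate level; five concentrations were tested over 48 hours in 96-well plates. Abbreviation: GI50, concentration required for 50% inhibition of growth. TGI: concentration producing complete growth inhibition.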

Key:
Test in all cases: growth of human tumour cells (NCI), 48 h
UACC-62 melanoma = test system: UACC-62 melanoma
SR leukemia = test system: SR leukemia
OVCAR-8 ovarian = test system: OVCAR-8 ovarian
IGROV1 ovarian = test system: IGROV1 ovarian
TK-10 renal = test system: TK-10 renal
ACHN renal = test system: ACHN renal
SF-268 CNS = test system: SF-268 CNS
OVCAR-3 ovarian = test system: OVCAR-3 ovarian
MDA-MB-435 = test system: MDA-MB-435
T-47D breast = test system: T-47D breast

Row | SMILES | TGI (UACC-62 melanoma) | TGI (SR leukemia) | TGI (OVCAR-8 ovarian) | TGI (IGROV1 ovarian) | TGI (TK-10 renal) | TGI (ACHN renal) | TGI (SF-268 CNS) | TGI (OVCAR-3 ovarian) | GI50 (UACC-62 melanoma) | GI50 (MDA-MB-435) | TGI (MDA-MB-435) | GI50 (SR leukemia) | GI50 (OVCAR-8 ovarian) | GI50 (IGROV1 ovarian) | GI50 (TK-10 renal) | GI50 (ACHN renal) | GI50 (SF-268 CNS) | GI50 (OVCAR-3 ovarian) | GI50 (T-47D breast) | TGI (T-47D breast)
1 | c1ccc(OCc2nnc3n2N=C(c2ccccc2)CS3)cc1 | > 100 µM | > 100 µM | > 100 µM | > 100 µM | > 100 µM | > 100 µM | > 100 µM | > 100 µM | – | – | – | – | – | – | – | – | – | – | – | –
2 | Cc1ccc(NC(=O)CCc2n[nH]c(=S)o2)cc1 | > 100 µM | > 100 µM | > 100 µM | > 100 µM | > 100 µM | > 100 µM | > 100 µM | > 100 µM | – | – | – | – | – | – | – | – | – | – | – | –
3 | CC(=O)c1ccc(NC(=O)COC(=O)c2cccc3c(=O)c4ccccc4[nH]c23)cc1 | > 100 µM | > 100 µM | > 100 µM | > 100 µM | 60.6 µM | > 100 µM | > 100 µM | 69.4 µM | – | – | – | – | – | – | – | – | – | – | – | –
4 | CCCCCCCCCCCc1c(O)c(=O)c2c(oc3c(=O)c(CCCCCCCCCCC)c(O)c(=O)c3n2-c2ccc(N(C)C)cc2)c1=O | 34.3 µM | > 100 µM | 51.5 µM | 48.1 µM | 33 µM | 42.8 µM | 58.1 µM | 38.6 µM | – | – | – | – | – | – | – | – | – | – | – | –
5 | CN(CCCCCl)P(=O)(OCc1ccc([N+](=O)[O-])o1)OCC1OC(n2cnc([N+](=O)[O-])c2N)C(O)C1O (configuration not stated) | > 100 µM | > 100 µM | > 100 µM | > 100 µM | > 100 µM | > 100 µM | > 100 µM | > 100 µM | > 100 µM | > 100 µM | > 100 µM | 0.924 µM | > 100 µM | > 100 µM | > 100 µM | > 100 µM | > 100 µM | > 100 µM | – | –
6 | Cc1c2c(c(C)c3c1[nH]c1ccccc13)CN(C)CC2 | 31.9 µM | 87.8 µM | 37.7 µM | > 100 µM | 51.1 µM | 35.7 µM | 47.6 µM | 52.7 µM | – | – | – | – | – | – | – | – | – | – | – | –
7 | O=Cc1ccc(-c2ccc(-c3nc4ccccc4s3)cc2)s1 | > 100 µM | – | > 100 µM | > 100 µM | > 100 µM | > 100 µM | > 100 µM | 98.3 µM | 22.2 µM | 56.2 µM | > 100 µM | – | 80.9 µM | 55.8 µM | 70.2 µM | 43.5 µM | 71.7 µM | 27.2 µM | > 100 µM | > 100 µM
8 | NC(=O)NC1C(C(=O)O)N(Cc2ccccc2)C(=O)N1Cc1ccccc1 (configuration not stated) | > 100 µM | > 100 µM | > 100 µM | > 100 µM | > 100 µM | > 100 µM | > 100 µM | > 100 µM | – | – | – | – | – | – | – | – | – | – | – | –
9 | Cl.Fc1c[c-]c(-c2ccccn2)c(F)c1.[Pt].c1ccc([PH+](C[PH+](c2ccccc2)c2ccccc2)c2ccccc2)cc1 | 0.511 µM | – | 1.73 µM | – | 1.43 µM | 0.463 µM | – | 0.442 µM | 0.199 µM | 0.233 µM | 0.574 µM | – | 0.303 µM | – | 0.274 µM | 0.218 µM | – | 0.184 µM | 0.135 µM | 1.02 µM
10 | O=C(O)c1c(Br)c(Br)c(Br)c(Br)c1C1c2ccc(O)cc2Oc2cc(O)ccc21 | > 100 µM | – | > 100 µM | > 100 µM | > 100 µM | > 100 µM | > 100 µM | > 100 µM | – | – | > 100 µM | – | – | – | – | – | – | – | – | > 100 µM
11 | COc1ccc(C(=O)C#Cc2c[nH]c(=O)[nH]c2=O)cc1 | 32.8 µM | 8.38 µM | 32.5 µM | > 62.9 µM | 23.3 µM | 30.5 µM | 55.3 µM | 21.6 µM | – | – | – | – | – | – | – | – | – | – | – | –
12 | Cc1nc2cc(Nc3nc(Nc4ccc(F)cc4)nc(N4CCOCC4)n3)ccc2n1Cc1ccccc1 | – | 7.38 µM | 23.6 µM | 5.87 µM | – | 13.1 µM | 49.2 µM | 7.14 µM | – | 3.95 µM | 15.9 µM | 2.4 µM | 4.34 µM | 2.3 µM | – | 3.05 µM | 5.41 µM | 2.75 µM | 3.88 µM | > 100 µM
13 | COCCOCCOCCOc1cccc2c1C(=O)c1cccc(OCCOCCOCCOC)c1C2=O | > 100 µM | – | > 100 µM | > 100 µM | > 100 µM | > 100 µM | – | > 100 µM | – | – | – | – | – | – | – | – | – | – | – | –
14 | O=C1OC(=O)C2C3C=CC(C12)C1C2C=CC2C31 (configuration not stated) | – | > 100 µM | > 100 µM | > 100 µM | > 100 µM | > 100 µM | > 100 µM | – | – | – | – | – | – | – | – | – | – | – | – | –
15 | O=C(NCCCl)SCCO | > 100 µM | > 100 µM | > 100 µM | > 100 µM | > 100 µM | > 100 µM | > 100 µM | > 100 µM | – | – | – | – | – | – | – | – | – | – | – | –
16 | COc1cccc(N2C(=O)C3C4C=C5c6ccccc6N(c6ccccc6)C5(C3C2=O)[C@H]2C(=O)N(c3cccc(OC)c3)C(=O)[C@@H]42)c1 (some centres not stated) | > 100 µM | > 100 µM | > 100 µM | > 100 µM | > 100 µM | – | > 100 µM | > 100 µM | – | – | – | – | – | – | – | – | – | – | – | –
17 | COc1ccc(C(=O)c2sc3nc(-c4cccs4)ccc3c2N)cc1OC | > 100 µM | 22.7 µM | > 100 µM | > 100 µM | – | > 100 µM | > 100 µM | > 100 µM | 6.47 µM | 1.43 µM | 4.76 µM | 3.26 µM | 5.56 µM | 7.72 µM | – | 9.26 µM | 8.33 µM | 6.78 µM | – | –
18 | COC(=O)Cc1cc(=O)[nH]c2c1C(=O)CCC2 | – | > 100 µM | > 100 µM | > 100 µM | > 100 µM | > 100 µM | > 100 µM | > 100 µM | – | – | – | – | – | – | – | – | – | – | – | –
19 | CC([O-])=C1C(=O)c2ccccc2C1=O.CC([O-])=C1C(=O)c2ccccc2C1=O.CC[O-].CC[O-].[Ti+4] | > 100 µM | > 100 µM | > 100 µM | > 100 µM | – | > 100 µM | > 100 µM | > 100 µM | > 100 µM | – | – | > 100 µM | > 100 µM | > 100 µM | – | > 100 µM | > 100 µM | > 100 µM | – | –
20 | O=C1CCCCC12CCC/C2=N\O (configuration not stated) | > 100 µM | > 100 µM | > 100 µM | > 100 µM | > 100 µM | > 100 µM | > 100 µM | > 100 µM | – | – | – | – | – | – | – | – | – | – | – | –
21 | C=Cn1c([N+](=O)[O-])cnc1/C=C/c1ccc(C(=O)OCCN2CCOCC2)cc1 | > 100 µM | – | > 100 µM | > 100 µM | > 100 µM | > 100 µM | > 100 µM | > 100 µM | – | – | > 100 µM | – | – | – | – | – | – | – | – | > 100 µM
